Measurements from paper PMC10720709, “Design, synthesis, and evaluation of 4-(3-(3,5-dimethylisoxazol-4-yl)benzyl)phthalazin-1(2H)-one derivatives: potent BRD4 inhibitors with anti-breast cancer activity” (Frontiers in Pharmacology, 2023).

Assays:
BD1 domain of BRD4 = tested on: BD1 domain of BRD4; set-up: method as in Hewings et al., 2013; details: ref Hewings et al., 2013; read-out: IC50 against the BD1 domain of BRD4; cited from earlier work
[1] = biological target: T1, recombinant BRD4 (BD1 + BD2) (Homo sapiens, UniProt O60885); test: BRD4 TR-FRET activity assay; type: binding;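 note: signal rises with BET ligand binding to the bromodomains, so inhibitors lower it, 120 min incubation at room temperature, 1% DMSO, wells lacking ligand as negative control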
T1 construct: employing a recombinant BRD4 (BD1 + BD2) and its corresponding ligand
Protocol: The BRD4 activity assay utilized TR-FRET technology, employing a recombinant BRD4 (BD1 + BD2) and its corresponding ligand. The TR-FRET signal generated in the assay is proportional to the ligand’s binding to the bromodomains. All reactions contained a final DMSO concentration of 1%. All binding reactions were conducted at room temperature. Each 20 µL reaction mixture, in assay buffer, comprised bromodomains, the BET Ligand, and the specified inhibitor amount. For the negative control, 5 µL of assay buffer replaced the BET ligand. After a 120-min incubation with the ligand, the TR-FRET signal was captured using a Tecan Infinite M1000 plate reader. IC50 values were determined through nonlinear regression with a normalized dose-response fit in Prism GraphPad software.

PARP1 = PARP1 (Homo sapiens, UniProt P09874); test: PARP1 enzymatic activity ELISA; type: biochemical; details: ELISA
Sequence of PARP1 (P09874 whole entry): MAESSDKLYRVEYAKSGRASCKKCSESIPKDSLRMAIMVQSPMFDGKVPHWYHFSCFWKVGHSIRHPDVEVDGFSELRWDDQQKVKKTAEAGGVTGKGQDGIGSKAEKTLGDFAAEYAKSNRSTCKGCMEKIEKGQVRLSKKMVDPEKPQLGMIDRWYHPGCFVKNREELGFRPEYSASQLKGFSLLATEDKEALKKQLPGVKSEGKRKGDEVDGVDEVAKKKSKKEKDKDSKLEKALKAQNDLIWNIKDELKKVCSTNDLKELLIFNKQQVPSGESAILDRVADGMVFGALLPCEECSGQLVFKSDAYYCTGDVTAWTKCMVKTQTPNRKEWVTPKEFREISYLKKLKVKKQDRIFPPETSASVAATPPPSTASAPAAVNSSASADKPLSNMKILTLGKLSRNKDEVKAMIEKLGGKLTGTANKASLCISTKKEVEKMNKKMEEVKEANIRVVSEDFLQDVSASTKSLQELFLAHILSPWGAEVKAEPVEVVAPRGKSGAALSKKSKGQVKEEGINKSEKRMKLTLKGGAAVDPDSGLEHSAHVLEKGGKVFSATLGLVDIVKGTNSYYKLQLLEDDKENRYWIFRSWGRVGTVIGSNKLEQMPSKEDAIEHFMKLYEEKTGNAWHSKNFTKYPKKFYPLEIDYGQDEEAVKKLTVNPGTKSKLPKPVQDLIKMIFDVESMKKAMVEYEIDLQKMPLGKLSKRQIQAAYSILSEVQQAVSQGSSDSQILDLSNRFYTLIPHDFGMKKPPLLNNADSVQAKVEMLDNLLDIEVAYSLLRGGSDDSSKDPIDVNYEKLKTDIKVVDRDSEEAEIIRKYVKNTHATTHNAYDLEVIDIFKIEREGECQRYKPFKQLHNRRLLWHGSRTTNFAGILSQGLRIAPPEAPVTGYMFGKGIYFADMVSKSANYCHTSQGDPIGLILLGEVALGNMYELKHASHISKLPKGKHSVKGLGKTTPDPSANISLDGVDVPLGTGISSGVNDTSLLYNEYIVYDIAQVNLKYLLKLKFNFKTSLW
Protocol: The inhibition of PARP1 enzymatic activity by the tested compounds was gauged using an ELISA in 96-well plates. Each well was pre-coated with histone (20 μg/mL) in 100 μL of PBS buffer and incubated overnight at 4 °C. […] This was followed by the addition of 5 μL of either the compound at varying concentrations or a solvent control. The reaction was initiated by adding 20 μL of PARP (50 ng/well) and incubating at 30°C for 1 h. Post-reaction, 50 µL of streptavidin-conjugated HRP was introduced, and the assay continued at 30°C for an additional 30 min. Finally, 100 μL of a solution containing H2O2 and luminol in 0.1 M citrate buffer (pH 5.4) was added, and the luminescent signal was recorded using a Molecular Devices SpectraMax M5 microplate reader.

MDA-MB-231 cells = test: MTT cell viability assay, MDA-MB-231; type: cell-based; details: Homo sapiens; MDA-MB-231, MTT, 72 h; read-out: Cytotoxicity IC50
Protocol: (§1) MDA-MB-468, MDA-MB-231, and MCF-7 cell lines were sourced from the National Collection of Authenticated Cell Culture, China. Cells were maintained in DMEM medium supplemented with 10% FBS and 1% penicillin/streptomycin, and incubated at 37°C in a humidified atmosphere containing 5% CO2.
(§2) The viability of cells was assessed using the MTT assay. Cells were seeded at a density of 3×10^3 cells per well in a 96-well plate and treated with varying concentrations (0.05, 0.2, 0.8, 3.2, 6.4, 12.8 µM) of the compounds for 72 h. Post-incubation, 100 µL of MTT solution (0.5 mg/mL) was added to each well and further incubated for 4 h. The resulting formazan crystals were dissolved in 150 µL DMSO, and the absorbance was measured at 570 nm using a microplate reader.

MDA-MB-468 cells = test: MTT cell viability assay, MDA-MB-468; type: cell-based; details: Homo sapiens; MDA-MB-468, MTT, 72 h; read-out: Cytotoxicity IC50
Protocol: as §1, §2

MCF-7 cells [2] = test: MTT cell viability assay, MCF-7; type: cell-based; details: Homo sapiens, MCF7; MCF-7, MTT, 72 h; read-out: Cytotoxicity IC50
Protocol: as §1, §2

MCF-7 cells [3] = test: Cell cycle analysis (PI, flow cytometry); type: cell-based; details: for proportion of cells in G1 phase: 48 h
Protocol: The cell cycle distribution was assessed using the DNA Content Quantitation Assay Kit (Solarbio, China). […] After treatment, cells were harvested, fixed in ice-cold 70% ethanol overnight at 4°C, and subsequently washed with PBS. Cells were then treated with 100 μL RNase at 37°C for 30 min and stained with 400 μL PI for 30 min at 4°C in the dark. The cell cycle distribution was analyzed using an Accuri C6 Plus flow cytometer (BD Bioscience, CA), and data interpretation was performed with FlowJo software.

[4] = tested on: c-MYC expression in MCF-7 cells; test: Western blot of c-MYC; type: cell-based; details: MCF-7, 24 h
Protocol: (§3) Cells were then lysed using RIPA buffer supplemented with protease and phosphatase inhibitors. Protein concentrations were determined using the BCA Protein Assay Kit. Equal amounts of protein (20–30 µg) were separated by SDS-polyacrylamide gel electrophoresis and subsequently transferred to a polyvinylidene fluoride (PVDF) membrane. The membrane was blocked using 5% milk in PBS prior to incubation with primary antibodies. Primary antibodies against p-H2AX (Cell Signaling Technology™, US), c-MYC, and β-actin (Proteintech, US) were used. After overnight incubation at 4°C, membranes were washed and incubated with HRP-conjugated secondary antibodies for 1 h. Protein bands were visualized using ECL reagents.

γ-H2AX in MCF-7 cells = test: Western blot of γ-H2AX; type: cell-based; details: MCF-7, 24 h
Protocol: as §3

MCF-7 cells [5] = test: Clonogenic (colony formation) assay; type: cell-based; details: MCF-7, 0.3, 1, 3 μM, 8 days
Protocol: MCF-7 cells were seeded in 6-well plates at a density of 500 cells/well and allowed to grow for 8 days to facilitate colony formation. After incubation, cells were washed with PBS, fixed in methanol for 15 min, and stained with 1% crystal violet for an hour. Colonies were then imaged and counted.

MCF-7 cells [6] = test: Wound scratch cell migration assay; type: cell-based; details: MCF-7, wound scratch, 1 μM, 48 h
Protocol: MCF-7 cells were seeded in 6-well plates at a density of 5×10^5 cells/well and incubated overnight. A scratch was made in the cell monolayer using a 10 µL pipette tip. […] Images were captured at 0, 12, 24, and 48-h intervals.

MCF-7 cells [7] = test: Comet assay (DNA damage); type: cell-based; details: MCF-7, 24 h
Protocol: The comet assay was performed under alkaline conditions using the Comet Assay Kit (Beyotime, China) as per the manufacturer’s instructions. […] This mixture was spread onto microscope slides, which were then submerged in lysis solution for an hour. Electrophoresis was conducted in a horizontal apparatus at 25 V and 300 mA. Post-electrophoresis, slides were stained with PI for DNA visualization, and images were captured using a fluorescence inverted microscope.

inhibition at 1 µM ([1]; 1 μmol/L, read-out: BRD4 inhibition rate) [%] | IC50 ([1]; TR-FRET, BRD4 (BD1 + BD2)) [µM] | IC50 (PARP1) [µM] | Structure (SMILES) | IC50 (BD1 domain of BRD4) [µM] | IC50 (MDA-MB-231 cells) [µM] | IC50 (MDA-MB-468 cells) [µM] | IC50 (MCF-7 cells [2]) [µM] | proportion of cells in G1 phase (MCF-7 cells [3]; MCF-7, 0.3 μM) [%] | proportion of cells in G1 phase (MCF-7 cells [3]; MCF-7, 1 μM) [%] | proportion of cells in G1 phase (MCF-7 cells [3]; MCF-7, 3 μM) [%] | effect on cell cycle (in words) (MCF-7 cells [3]; MCF-7, 48 h) | expression of c-MYC (Western blot) [4] | γ-H2AX level (Western blot) (γ-H2AX in MCF-7 cells) | colony formation (in words) (MCF-7 cells [5]) | inhibition of cell migration (in words) (MCF-7 cells [6]) | DNA damage (comet assay, in words) (MCF-7 cells [7])
 |  |  | Cc1noc(C)c1-c1cc(O)cc(C(=O)c2ccccc2)c1 [Compound 7] | 0.544 |  |  |  |  |  |  |  |  |  |  |  | 
85 | 0.237 ± 0.093 | 4.29 ± 1.81 | Cc1noc(C)c1-c1cc(Cc2n[nH]c(=O)c3ccccc23)cc(NC(=O)c2ccccc2C(F)(F)F)c1 [DDT26] |  | 7.55 | 3.96 | 4.9 | 53.8 | 59.8 | 64.5 | dose-dependent G1 phase cell cycle arrest | downregulate the expression of c-MYC in MCF-7 cells in a concentration-dependent manner | induced the accumulation of γ-H2AX in MCF-7 cells in a concentration-dependent fashion | inhibited colony formation in MCF-7 cells in a dose-dependent manner | slightly less pronounced | induced DNA damage in MCF-7 cells in a dose-dependent manner
